Patent US7247734B2 (Vernalis (Cambridge) Limited, priority 2001, dated 2007)

What was measured:
HSP70 in HCT116 cells = assay: Cell-based ELISA for HSP70 expression; parameters: species or system human; details: for % increase in HSP70 (Normalised Europium Counts compared to DMSO controls): HCT116, 10 μM compound
Source text: Cell-based ELISA methods (see, e.g., Stockwell et al., 1999; Versteeg et al., 2000) offer several advantages for evaluating the pharmacodynamic effects of novel mechanism-based inhibitors and may be the method of choice for comparing inhibitors that are identified during the iterative process of lead identification and optimisation. The technique can be used to rapidly rank the effectiveness of compounds as well as to investigate the molecular mechanisms of their action. The increased sample throughput possible with ELISA means that compounds can be simultaneously studied in multiple replicates at different doses and exposure times. […] The assays are carried out directly on cells grown and treated in microtitre plates, thereby removing the necessity for preparing cell lysates. ELISA techniques can in theory be applied to any cellular protein or post-translational modification for which an antibody is available and results are at least semi-quantitative.
Chemicals are of the highest purity commercially available. • (1) Human colon tumour cell lines (e.g., HCT116 and HT29 from American Tissue Culture Collection, ATCC) grown in Dulbecco's modified Eagle's medium (DMEM) (CSSD, Institute of Cancer Research, London, UK) supplemented with […] glucose, 10% foetal bovine serum (FBS), 200 mM L-glutamine, and 5 ml non-essential amino acids in a humidified atmosphere of 5% CO2 at 37° C. • (2) 96 well Falcon clear microtitre tissue culture plates (BD Labware, Hospital Management and Supplies, Ltd., Northampton, UK). • (3) DMSO diluted in dH2O (8%). • (4) HSP90 inhibitors at required concentration dissolved in DMSO. • (5) Fixing solution (0.25% glutaraldehyde, 3% paraformaldehyde and 0.25% Triton-X 100) (all from Sigma Aldrich Ltd, Poole, UK). • (6) Blocking solution (5% dried milk (Marvel) in PBS) prepared daily. • (7) Anti HSP70 monoclonal antibody (SPA 810, Bioquote, York, UK). • (8) DELFIA® wash buffer, enhancement solution, assay buffer and Europium labelled anti-mouse IgG (1244–1330) (PerkinElmer Life Sciences, Milton Keynes, UK). • (9) BCA protein assay reagents (Perbio Science UK Ltd., Chester, UK). Method
Incubate at 37° for 30 min. • (6) Wash plates twice in PBS using an automated washer (Wellwash 5000 ten plate stacker-washer or Wellwash Ascent single plate washer, Thermo Labsystems, Basingstoke, UK). • (7) Block the plates by addition of blocking solution (100 μl) and incubate for 30 min. • (8) Add 100 μl primary antibody diluted to 0.95 μg/ml in PBS to each well and incubate plate for 1.5 h. Wash plates once with DELFIA® wash solution. • (9) Add 100 μl Europium labelled anti-mouse IgG diluted in DELFIA® assay buffer to 75 ng/ml and incubate for 1 hour. Wash plates once with DELFIA® wash solution as before. • (10) Add 100 μl DELFIA® enhancement solution to each well. • (11) Measure the fluorescence (615 nm) in Victor 2 1420 multilabel counter (Perkin Elmer Life Sciences, Milton Keynes, UK) using time-resolved measurement mode. • (12) Wash plates once with PBS and measure protein concentration by the addition of 200 μl BCA reagent to each well, shake for 1–2 min and incubate for 30 mins at 37° C. Read absorption at 570 nm. • (13) Express ELISA results by normalising to protein in the well (Eu counts (cpm) divided by OD@ 570 nm). Compare the effect of HSP90 inhibitors on HSP70 expression with DMSO treated controls. Comments • (1) Cells plated into 96 well plates are incubated in a plastic box to reduce evaporation from the outside wells. […]

HCT116 cells = assay: Cellular protein by BCA assay after compound exposure (ELISA plates); format: cell-based, human; details: for Cellular Protein (% DMSO controls): HCT116, 10 μM compound
Protocol: Incubate at 37° for 30 min. • (6) Wash plates twice in PBS using an automated washer (Wellwash 5000 ten plate stacker-washer or Wellwash Ascent single plate washer, Thermo Labsystems, Basingstoke, UK). • (7) Block the plates by addition of blocking solution (100 μl) and incubate for 30 min. • (8) Add 100 μl primary antibody diluted to 0.95 μg/ml in PBS to each well and incubate plate for 1.5 h. Wash plates once with DELFIA® wash solution. • (9) Add 100 μl Europium labelled anti-mouse IgG diluted in DELFIA® assay buffer to 75 ng/ml and incubate for 1 hour. Wash plates once with DELFIA® wash solution as before. • (10) Add 100 μl DELFIA® enhancement solution to each well. • (11) Measure the fluorescence (615 nm) in Victor 2 1420 multilabel counter (Perkin Elmer Life Sciences, Milton Keynes, UK) using time-resolved measurement mode. • (12) Wash plates once with PBS and measure protein concentration by the addition of 200 μl BCA reagent to each well, shake for 1–2 min and incubate for 30 mins at 37° C. Read absorption at 570 nm. • (13) Express ELISA results by normalising to protein in the well (Eu counts (cpm) divided by OD@ 570 nm). Compare the effect of HSP90 inhibitors on HSP70 expression with DMSO treated controls. Comments • (1) Cells plated into 96 well plates are incubated in a plastic box to reduce evaporation from the outside wells. In addition, ELISA incubation steps are carried out in a 37° C. laboratory incubator and in a moist environment e.g., plastic box lined with damp tissue paper. • (2) All additions to the microtitre plate can be achieved using a multichannel pipette or for larger numbers of plates an automated dispenser such as a Multidrop (Thermo Labsytems, Basingstoke, UK). • (3) For convenience, if the effects of compounds are being studied at several time points the ELISA can be carried out in batches, plates being stored (in a container) at 4° C. following the fixation step. In this case the plates are washed only once following fixation and again immediately before the first ELISA step (step 6 above). In addition all the plates can be stored for subsequent protein estimation. • (4) Reproducibility of both the measured Europium counts and the protein measurements was between 10–15% (CV). • (5) DELFIA® reagents (see, e.g., Hemmila and Webb, 1997) have been routinely used in cell-based ELISAs. This endpoint provides high sensitivity and the time-resolved measurements reduce interference from non-specific fluorescence. However, it is also possible to use a horse radish peroxidase second antibody conjugate and either a calorimetric (e.g., tetramethylbenzidine) or chemiluminescent reagent (e.g., ECL reagent (Amersham Pharmacia Biotech, Little Chalfont, Bucks, UK) for endpoint measurement. • (6) It is recommended that a blank consisting of second-antibody only (i.e., no first antibody) together with an appropriate first antibody control (e.g., isotype matched IgG) are included in assays during the process of optimising reagent concentrations. Growth Inhibition Assay
The effect of various compounds of the present invention on the expression of the molecular marker HSP70 was determined using the cell-based ELISA and a specific monoclonal antibody to HSP70 in HCT116 cells, as described above. Cellular protein following compound exposure was determined using BCA assay as described in the method.

Row | Compound | % increase in HSP70 (Normalised Europium Counts compared to DMSO controls) (HSP70 in HCT116 cells; (48 h)) [%] | % increase in HSP70 (Normalised Europium Counts compared to DMSO controls) (HSP70 in HCT116 cells; (time not given)) [%] | Cellular Protein (% DMSO controls) (HCT116 cells; (48 h)) [%] | Cellular Protein (% DMSO controls) (HCT116 cells; (time not given)) [%] | HSP70 induction (HSP70 in HCT116 cells; HCT116, 10 μM, 48 h) | cellular protein measured by BCA, reduction of DMSO controls (HCT116 cells; HCT116, 10 μM)
1 | Cc1[nH]nc(-c2ccc(O)cc2O)c1-c1ccc2c(c1)OCCO2 [CCT018157] | 103 | 105 | 91.3 | 21.2 | – | –
2 | CCc1cc(-c2n[nH]c(C)c2-c2ccc3c(c2)OCCO3)c(O)cc1O [CCT018159, 4-[4-(2,3-Dihydro-benzo[1,4]dioxin-6-yl)-5-methyl-1H-pyrazol-3-yl]-6-ethyl-benzene-1,3-diol] | 278 | 158 | 50.0 | 20.8 | up to 2.8 fold | 50–80%
